Laboratory results from patent US8338143B2, “Enhanced production of paclitaxel and taxanes by cell cultures of Taxus species” (Phyton Holdings, LLC, priority 1996, dated 2012).
Where two headings read alike, the source gives them in different places.

What was measured:
[1] = tested on: Taxus chinensis cell line KS1A; test: Enhancement of taxane biosynthesis by silver compounds; assay type: cell-based
Procedure: Analytical high performance liquid chromatography (HPLC) was performed on a high-carbon loaded diphenyl column (Supelco, 5 μM, 4.6 mm×25 cm) with an LDC Analytical binary gradient high pressure mixing system consisting of CM3500/CM3200 pumps, a CM4100 variable volume autosampler and an SM5000 photo diode array detector interfaced to a personal computer. Column temperature was regulated ay 35° C. with an Eldex CH150 column oven. Quantitative HPLC analysis of taxanes was accomplished using a binary gradient elution scheme as follows: […]
Seven-day old cells of Taxus chinensis suspension KS1A cultivated in Medium L (Table 2) were suction filtered aseptically using a sterile Buchner funnel fitted with a MIRACLOTH (Calbiochem) filter. Approximately 0.75 to 1 gram fresh weight cells were inoculated into 4 to 5 mL of culture medium of the given composition indicated in Table 10, to yield a fresh weight cell density in the range of 15% to 20% (w/v). The vessels were incubated at 25±1° C. at 120 RPM on a gyratory shaker (1″ throw) in the dark. Evaporation was corrected for by addition of sterile distilled water. Samples of whole broth (i.e., both extracellular and intracellular taxanes) were taken at periodic intervals, and were processed and analyzed by HPLC according to the methods outlined in Example 5.

[2] = tested on: Taxus chinensis cell culture SS122-42; test: Enhancement of taxane biosynthesis by jasmonic acid and its methyl ester; assay type: cell-based; settings: 200 μM JMA or 89 μM MJS; Medium N + 10 μM NAA, 14 days, whole broth
Procedure: Seven-day old cells of Taxus chinensis suspensions cultivated in Medium M (Table 2) were suction filtered aseptically using a sterile Buchner funnel fitted with a MIRACLOTH (Calbiochem) filter. Cells were inoculated into culture medium of the given composition indicated in Table 12, at a fresh weight cell density in the range of 15% to 20% (w/v). The cultures were incubated at 24±1° C. at 120 or 180 RPM (depending on the vessel size) on a gyratory shaker (1″ throw) in the dark. Evaporation was corrected for by adding sterile distilled water. Samples of whole broth (i.e., both extracellular and intracellular taxanes) were taken at periodic intervals, and were processed and analyzed by HPLC according to the methods outlined in Example 5.

[3] = tested on: Taxus chinensis cell culture SS122-13; test: as above; assay type: cell-based; settings: 89 μM MJS; Medium N + 10 μM NAA, 14 days, whole broth
Procedure: Seven-day old cells of Taxus chinensis suspensions cultivated in Medium M (Table 2) were suction filtered aseptically using a sterile Buchner funnel fitted with a […] (Calbiochem) filter. […] The cultures were incubated at 24±1° C. at 120 or 180 RPM (depending on the vessel size) on a gyratory shaker (1'' throw) in the dark. Evaporation was corrected for by adding sterile distilled water.

Taxus spp. cell cultures [4] = test: Elicitation of Taxus cell cultures by biotic and abiotic elicitors; settings: comparison among elicitors tested
[5] = tested on: Taxus chinensis cell culture SS122-13
[6] = tested on: Taxus chinensis cell culture SS6A-1224
[7] = tested on: Taxus chinensis cell culture SS122-42
Taxus spp. cell cultures [8] = tested on: Taxus spp. cell cultures
Taxus chinensis SS122-42 = test: Enhancement of taxane biosynthesis by MDNA; assay type: cell-based; settings: 50 μM MDNA, 14 days, whole broth
Procedure: Seven-day old cells of Taxus chinensis suspension culture SS122-42 cultivated in Medium M (Table 2) were suction filtered aseptically using a sterile Buchner funnel fitted with a […] (Calbiochem) filter. […] The vessels were incubated at 24±1° C. at 180 RPM on a gyratory shaker (1'' throw) in the dark. Treated cultures were sampled and analyzed using the methods described in Example 5 at various time points. Evaporation was corrected for by adding sterile distilled water at periodic intervals.

[9] = culture medium I (Medium N + 10 μM NAA)
[10] = culture medium II (medium I + 50 μM silver thiosulfate)

For `O=C([O-])c1ccccc1.[Ag+]` [Silver benzoate], the “Baccatin III” value [1] was 40 mg/L extracellular product, the “Taxol (paclitaxel)” value [1] was 7 mg/L extracellular product and the “Total Taxanes” value [1] was 47 mg/L extracellular product.

`CC/C=C\CC1C(=O)CCC1CC(=O)OC` (centres unmarked) [MJS, methyl jasmonate] was tested, and the “Baccatin III” value [2] was 3 mg/L, the “Other Taxanes” value [2] was 109 mg/L and the “Taxol (paclitaxel)” value [2] was 121 mg/L. For the same molecule, the “Total Taxanes” value [2] was 233 mg/L, the “Baccatin III” value [3] was 9 mg/L and the “Other Taxanes” value [3] was 63 mg/L. The “Taxol (paclitaxel)” value [3] was 73 mg/L and the “Total Taxanes” value [3] was 124 mg/L.

`O=S(=O)([O-])[O-].[Ag+].[Ag+]` [Silver sulfate] was tested, and the “Baccatin III” value [1] was 61 mg/L extracellular product, the “Taxol (paclitaxel)” value [1] was 7 mg/L extracellular product and the “Total Taxanes” value [1] was 68 mg/L extracellular product.

With `COc1cc(/C=C/C(=O)O)ccc1O` [ferulic acid] the “production increase by elicitation (taxane accumulation and secretion)” value (Taxus spp. cell cultures [4]) was “highest production increase”.

Silver thiosulfate was tested, and the “Baccatin III” value [5] was 12 mg/L, the “Other Taxanes” value [5] was 60 mg/L and the “Taxol (paclitaxel)” value [5] was 103 mg/L. The “Total Taxanes” value [5] was 173 mg/L, the “Baccatin III” value [6] was 172 mg/L and the “Other Taxanes” value [6] was 126 mg/L. The “Taxol (paclitaxel)” value [6] was 86 mg/L, the “Total Taxanes” value [6] was 384 mg/L and the “Baccatin III” value [7] was 4 mg/L. For the same molecule, the “Other Taxanes” value [7] was 38 mg/L, the “Taxol (paclitaxel)” value [7] was 146 mg/L and the “Total Taxanes” value [7] was 188 mg/L. The “Baccatin III” value [1] was 71 mg/L extracellular product, the “Taxol (paclitaxel)” value [1] was 15 mg/L extracellular product and the “Total Taxanes” value [1] was 86 mg/L extracellular product.

For Silver oxide, the “Baccatin III” value [1] was 43 mg/L extracellular product, the “Taxol (paclitaxel)” value [1] was 18 mg/L extracellular product and the “Total Taxanes” value [1] was 61 mg/L extracellular product.

For Toluenesulfonic acid silver salt, the “Baccatin III” value [1] was 39 mg/L extracellular product, the “Taxol (paclitaxel)” value [1] was 6 mg/L extracellular product and the “Total Taxanes” value [1] was 45 mg/L extracellular product.

In the case of `CC/C=C\C[C@H]1C(=O)CC[C@@H]1CC(=O)O` [JMA, Jasmonic acid], the “Baccatin III” value [2] is reported as 4 mg/L, the “Other Taxanes” value [2] is reported as 87 mg/L and the “Taxol (paclitaxel)” value [2] is reported as 120 mg/L. The “Total Taxanes” value [2] was 211 mg/L.

With Chitosan the “toxicity to cells / effect on cell viability” value (Taxus spp. cell cultures [8]) was “toxic and causes permanent cell damage”.

For `O=C(O)c1ccccc1` [benzoic acid], the “production increase by elicitation (taxane accumulation and secretion)” value (Taxus spp. cell cultures [4]) was “highest production increase”.

For `O=C(O)C=Cc1cc2c(cc1[N+](=O)[O-])OCO2` [MDNA, 3,4-methylenedioxy-6-nitrocinnamic acid], the “Baccatin III” value (Taxus chinensis SS122-42; [9]) was 5 mg/L, the “Other Taxanes” value (Taxus chinensis SS122-42; [9]) was 45 mg/L and the “Taxol (paclitaxel)” value (Taxus chinensis SS122-42; [9]) was 163 mg/L. For the same molecule, the “Total Taxanes” value (Taxus chinensis SS122-42; [9]) was 213 mg/L, the “Baccatin III” value (Taxus chinensis SS122-42; [10]) was 34 mg/L and the “Other Taxanes” value (Taxus chinensis SS122-42; [10]) was 89 mg/L. For the same molecule, the “Taxol (paclitaxel)” value (Taxus chinensis SS122-42; [10]) was 311 mg/L and the “Total Taxanes” value (Taxus chinensis SS122-42; [10]) was 434 mg/L.
